Experimental findings from ChEMBL document CHEMBL1201862, “PubChem BioAssay data set” (2004) are described below.

Some test systems named below: KM12; SW-620; OVCAR-8; MDA-MB-435; HCC 2998; COLO 205; SK-MEL-28; OVCAR-5; T47D; RPMI-8226; M14; TK-10; SF-268; Hs-578T; UACC-257; MDA-N; MCF7; SNB-19; 786-0; SNB-75.
Holding throughout (assay): inhibition of tumour cell growth, NCI panel, 48 h

Counter-ions that a name gives are not always drawn.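 How tested: cells in 96-well plates exposed to compound for 48 hours at five concentrations. GI50 marks 50% less growth.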 Active and inactive are the calls of the source. Cut-off read from the data, not from the text of the source: active = GI50 up to about 1.1 µM and inactive = higher. Where only a bound is given, the exact number is not on record here.

For `NS(=O)(=O)c1ccc(Nc2c3ccccc3nc3c(C(=O)NCCO)cccc23)cc1`, the GI50 with KM12 was 0.137 µM (active); with SW-620, 0.118 µM (active); in the test with OVCAR-8, 0.173 µM (active); in the test with MDA-MB-435, 0.203 µM (active); in the test on HCC 2998 it was 0.182 µM (active); in the test on COLO 205, 0.0762 µM (active). Also, the GI50 was 0.167 µM (active) in the test with SK-MEL-28; 0.183 µM (active) in the test with OVCAR-5; 0.03 µM (active) in the test with T47D; 0.0676 µM (active) in the test with RPMI-8226; 0.182 µM (active) in the test with M14; 0.27 µM (active) with TK-10. The GI50 with SF-268 is 0.141 µM (active); in the test with Hs-578T, 0.188 µM (active); in the test on UACC-257 it was 0.17 µM (active); in the test with MDA-N, 0.196 µM (active); in the test on MCF7, 0.0373 µM (active); in the test with SNB-19, 0.0977 µM (active). The GI50 in the test on 786-0 is 0.145 µM (active).

As to `COc1ccc(OC)c2cc(Cc3ccc(N(C)C)cc3)c(=O)c(Cc3ccc(N(C)C)cc3)cc12`, the GI50 is > 100 µM (inactive) in the test on KM12; > 100 µM (inactive) with SW-620; 32.9 µM (inactive) in the test on OVCAR-8; > 100 µM (inactive) in the test with MDA-MB-435; > 100 µM (inactive) in the test on HCC 2998; > 100 µM (inactive) in the test with COLO 205. In addition, the GI50 was > 100 µM (inactive) with SK-MEL-28; > 100 µM (inactive) in the test on OVCAR-5; 76.9 µM (inactive) with T47D; 22.4 µM (inactive) in the test with RPMI-8226; > 100 µM (inactive) with M14; 46.7 µM (inactive) with SF-268. Also, the GI50 in the test with SNB-75 is 40.4 µM (inactive); in the test with Hs-578T, 25.5 µM (inactive); with UACC-257 it was > 100 µM (inactive); with MDA-N, > 100 µM (inactive); in the test on MCF7 it was > 100 µM (inactive); with SNB-19, 75.5 µM (inactive). For the same molecule, the GI50 with 786-0 was 90.8 µM (inactive).

With `COc1ccc(/C=C2\CN(C)CC3C2=NC(=S)NC3c2ccc(OC)cc2)cc1` (stereo not drawn), the GI50 is 2.97 µM (inactive) in the test with KM12; 6.05 µM (inactive) in the test with SW-620; 7.8 µM (inactive) in the test on OVCAR-8; 1.33 µM (inactive) with MDA-MB-435; 6.75 µM (inactive) with HCC 2998; 3.67 µM (inactive) in the test with COLO 205. In addition, the GI50 in the test on SK-MEL-28 is > 66.7 µM (inactive); with OVCAR-5, 19.3 µM (inactive); in the test on T47D, 4.11 µM (inactive); in the test with RPMI-8226 it was 2.99 µM (inactive); with M14, 2.77 µM (inactive); in the test with TK-10, 27.2 µM (inactive). Besides, the GI50 in the test on SF-268 was 5.64 µM (inactive); in the test on Hs-578T it was 52.7 µM (inactive); in the test on UACC-257, 4.82 µM (inactive); in the test with MDA-N it was 1.08 µM (active); with MCF7, 2.82 µM (inactive); with SNB-19, 5.66 µM (inactive). Also, the GI50 in the test on 786-0 was 3.66 µM (inactive).

Consider `CC[C@]12C=CCN3CC[C@@]4(c5cc(N=O)c(OC)cc5N(C)[C@H]4[C@@](O)(C(=O)NC(Cc4c[nH]c5ccccc45)C(=O)OC)[C@@H]1O)[C@@H]32` (stereo partly drawn), for which the GI50 with KM12 is 12.5 µM (inactive); in the test with SW-620 it was 6.93 µM (inactive); with OVCAR-8, 17.5 µM (inactive); in the test on MDA-MB-435, 17.1 µM (inactive); in the test on HCC 2998, 15.6 µM (inactive); with COLO 205, 15.4 µM (inactive). Moreover, the GI50 is 31.3 µM (inactive) in the test on SK-MEL-28; 19.5 µM (inactive) in the test on OVCAR-5; 6.93 µM (inactive) in the test with T47D; 19 µM (inactive) in the test with M14; 17.9 µM (inactive) with TK-10; 24.2 µM (inactive) with SF-268. Also, the GI50 in the test on SNB-75 was 15 µM (inactive); in the test on Hs-578T, 22.4 µM (inactive); in the test with UACC-257, 15.1 µM (inactive); with MDA-N it was 20.3 µM (inactive); with MCF7, 15.3 µM (inactive); in the test on SNB-19, 19.9 µM (inactive). Besides, the GI50 in the test on 786-0 was 30 µM (inactive).

On to `CCOC(=O)/C=C(/C(=O)OCC)n1ccc(=O)n(Cc2cn(COCCOC(C)=O)nn2)c1=O`, for which the GI50 in the test on KM12 was 15.5 µM (inactive); in the test with SW-620 it was 7.05 µM (inactive); in the test on OVCAR-8 it was 16.4 µM (inactive); in the test with MDA-MB-435 it was 17.9 µM (inactive); with HCC 2998, 17.8 µM (inactive); in the test on COLO 205, 4.91 µM (inactive). The GI50 was 16.3 µM (inactive) in the test with SK-MEL-28; 20.1 µM (inactive) with OVCAR-5; 32.1 µM (inactive) with T47D; 19.5 µM (inactive) with RPMI-8226; 16.8 µM (inactive) in the test on TK-10; 18.2 µM (inactive) in the test with SF-268. Further, the GI50 with SNB-75 is 33 µM (inactive); in the test on Hs-578T it was 26.4 µM (inactive); with UACC-257 it was 19.3 µM (inactive); in the test on MDA-N, 50 µM (inactive); in the test on MCF7, 15 µM (inactive); in the test with SNB-19, 70.5 µM (inactive). In addition, the GI50 in the test on 786-0 was 21.7 µM (inactive).

For `CCOC(=O)CN1CCNCCN(CC(=O)OCC)CCNCC1`, the GI50 is > 100 µM (inactive) with KM12; > 10 µM (inactive) in the test on SW-620; > 100 µM (inactive) in the test on OVCAR-8; > 100 µM (inactive) in the test with MDA-MB-435; > 100 µM (inactive) in the test with HCC 2998; > 100 µM (inactive) with COLO 205. The GI50 in the test with SK-MEL-28, in the test with OVCAR-5, with T47D, in the test on RPMI-8226, with TK-10 and in the test with SNB-75 was > 100 µM (inactive) each time. The GI50 in the test with Hs-578T, in the test with UACC-257, in the test with MDA-N, with MCF7, in the test on SNB-19 and with 786-0 was > 100 µM (inactive) throughout.

As for `CCOC(=O)C(=O)/C(=C\NC(=S)Nc1ccccc1Cl)C(=O)OCC`, the GI50 in the test on KM12, in the test on SW-620, in the test with OVCAR-8, in the test with MDA-MB-435, in the test on HCC 2998 and in the test on COLO 205 was > 100 µM (inactive) each time. The GI50 in the test on SK-MEL-28, in the test with OVCAR-5, in the test with T47D, with RPMI-8226, with M14 and in the test with SF-268 was > 100 µM (inactive) in each case. The GI50 in the test with SNB-75, in the test with Hs-578T, with UACC-257, in the test on MDA-N, with MCF7 and in the test with SNB-19 was > 100 µM (inactive) in each case. The GI50 in the test on 786-0 is > 100 µM (inactive).

Consider `CC[C@@]1(C[C@H]2C[C@@]3(C(=O)OC)c4[nH]c5ccccc5c4CCN3C2=S)COC2(CCCCC2)O1`, for which the GI50 in the test with KM12 was 4.47 µM (inactive); with SW-620 it was 3.13 µM (inactive); with OVCAR-8 it was > 100 µM (inactive); with MDA-MB-435, 5.09 µM (inactive); with HCC 2998 it was 15.2 µM (inactive); in the test on COLO 205, 7.41 µM (inactive). The GI50 with OVCAR-5 is > 100 µM (inactive); with T47D, 26.2 µM (inactive); with M14, 23.7 µM (inactive); in the test with TK-10 it was 11.2 µM (inactive); in the test on SF-268, 62.5 µM (inactive); in the test on SNB-75, 17.8 µM (inactive). Further, the GI50 with Hs-578T is 10.6 µM (inactive); in the test on UACC-257, 26.5 µM (inactive); in the test with MDA-N, 66.8 µM (inactive); in the test with MCF7, 33.3 µM (inactive); in the test with SNB-19, 38.5 µM (inactive); with 786-0 it was > 100 µM (inactive).

Turning to `OC1CCCCCCCCCCC1[S+]1CCCC1.O[B-](F)(F)F` (stereo not drawn), the GI50 with KM12 was > 100 µM (inactive); in the test with SW-620, > 100 µM (inactive); in the test on OVCAR-8 it was > 100 µM (inactive); with MDA-MB-435 it was > 100 µM (inactive); in the test with HCC 2998, > 100 µM (inactive); in the test with COLO 205 it was 62.7 µM (inactive). The GI50 is 68.4 µM (inactive) in the test with SK-MEL-28; > 100 µM (inactive) in the test with OVCAR-5; > 100 µM (inactive) in the test on T47D; 36.1 µM (inactive) with RPMI-8226; > 100 µM (inactive) with M14; > 100 µM (inactive) in the test with TK-10. In addition, the GI50 with SF-268 is > 100 µM (inactive); in the test on Hs-578T, > 100 µM (inactive); in the test with UACC-257 it was 38.8 µM (inactive); with MDA-N, > 100 µM (inactive); in the test with MCF7 it was > 100 µM (inactive); in the test with SNB-19, > 100 µM (inactive). Also, the GI50 in the test with 786-0 is > 100 µM (inactive).

`NCCCNCCCCNCCCN` [SPERMINE TETRAHYDROCHLORIDE]: the GI50 was > 100 µM (inactive) in the test with KM12; 3.66 µM (inactive) with SW-620; 34.3 µM (inactive) with OVCAR-8; > 41.2 µM (inactive) in the test on MDA-MB-435; > 48.5 µM (inactive) with HCC 2998; 4.67 µM (inactive) in the test with COLO 205. In addition, the GI50 in the test with OVCAR-5 is > 100 µM (inactive); in the test on T47D it was 2.36 µM (inactive); with RPMI-8226, 0.284 µM (active); in the test with M14, 9.66 µM (inactive); in the test with TK-10 it was 6.62 µM (inactive); with SF-268, > 42.7 µM (inactive). For the same molecule, the GI50 in the test on SNB-75 is > 100 µM (inactive); with Hs-578T, 11.9 µM (inactive); with UACC-257, > 71.1 µM (inactive); in the test with MDA-N, 15.2 µM (inactive); with MCF7, 2.79 µM (inactive); with SNB-19, > 100 µM (inactive). Moreover, the GI50 with 786-0 was 1.46 µM (inactive).
